One experiment concerns the target Human cGAS enzyme (Homo sapiens (Human), UniProt Q8N884). Nature of the experiment: Human cGAS enzyme assay (hcGAS IC50, in vitro), cGAMP formation by RapidFire MS.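 Further: recombinant human cGAS activated by 45 bp dsDNA with 30 µM each ATP and GTP, 90 min, cGAMP vs cyclic-di-GMP standard by MS, 8-point titration from 10 µM.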 In kind it is biochemical.
The target of experiment [1] is cellular cGAS activity in baculovirus-stimulated THP1-Dual cells (Homo sapiens (Human), UniProt Q8N884). Nature of the experiment: Human cGAS cell assay (THP1(vir) IC50): IFN induction in virus-stimulated THP1-Dual cells, IRF Lucia luciferase reporter.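 Further: Eight-point dilution series starting at 10 µM, 1% DMSO, 18 h at 37 °C, luminescence read-out, virus-free wells as 0% and DMSO-treated virus-stimulated wells as 100%.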 It is filed as cell-based. (In general: In a reporter assay the amount or activity of a reporter protein is the signal.)
cellular cGAS activity in baculovirus-stimulated THP1-Dual cells, sequence (Q8N884 whole entry): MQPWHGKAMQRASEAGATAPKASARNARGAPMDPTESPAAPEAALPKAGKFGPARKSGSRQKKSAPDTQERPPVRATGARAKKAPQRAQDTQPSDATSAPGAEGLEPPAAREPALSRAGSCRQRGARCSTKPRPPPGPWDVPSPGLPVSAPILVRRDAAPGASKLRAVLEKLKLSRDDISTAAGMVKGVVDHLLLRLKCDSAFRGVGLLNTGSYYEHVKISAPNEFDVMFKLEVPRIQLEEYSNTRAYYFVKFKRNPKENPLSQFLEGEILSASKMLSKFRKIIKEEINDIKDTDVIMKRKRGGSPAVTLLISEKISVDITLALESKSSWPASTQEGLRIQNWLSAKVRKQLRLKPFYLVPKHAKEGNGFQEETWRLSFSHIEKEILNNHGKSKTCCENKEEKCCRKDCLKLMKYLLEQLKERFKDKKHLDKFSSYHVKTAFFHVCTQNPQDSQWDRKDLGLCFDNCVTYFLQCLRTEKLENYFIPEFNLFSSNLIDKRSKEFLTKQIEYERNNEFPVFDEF

For experiment [2], the system named is pathway directly downstream of cGAS in cGAMP-stimulated THP1-Dual cells. Briefly: cGAMP stimulated counter cell assay (THP1(cGAMP) IC50): IFN induction in cGAMP-stimulated THP1-Dual cells. As to conditions: for IC50: Homo sapiens, THP1-Dual; for Ratio THP(cGAMP) IC50/ THP(vir) IC50: selectivity for cGAS inhibition. In kind it is cell-based, human. From the text: 6.2 Method: Human cGAS Cell Assay and cGAMP Stimulated Counter Cell Assay (THP1(vir) IC50 and THP1(cGAMP) IC50)
THP1-Dual™ cells (InvivoGen #thpd-nfis) expressing IRF dependent Lucia luciferase reporter were used as basis for both assays. For the detection of cellular cGAS activity cells were stimulated by a baculovirus (pFastbac-1, Invitrogen, no coding insert) infection that delivers the cGAS enzyme stimulating double-stranded DNA (measurement of THP1(vir) IC50).
For the counter assay, cells were stimulated by cGAMP (SigmaAldrich #SML1232) to activate the identical pathway independent and directly downstream of cGAS (measurement of THP1(cGAMP) IC50). Pathway activity was monitored by measuring the Lucia luciferase activity induced by either DNA stimulated cGAS enzyme activity (measurement of THP1(vir) IC50) or by cGAMP directly (measurement of THP1(cGAMP) IC50, counter assay).
Compounds were delivered in 10 mM DMSO solution, serially diluted and transferred to the 384 well assay plate (Greiner #781201) using an Echo acoustic dispenser. Typically, 8 concentrations were used with the highest concentration at 10 μM in the final assay volume followed by ˜1:5 dilution steps. DMSO concentration was set to 1% in the final assay volume. The 384 well assay plate contained 21 test compounds (column 1-22), and DMSO in column 23 and 24.
Cells, cultivated according to manufacturer conditions, were harvested by centrifugation at 300 g/10 min and were then resuspended and diluted to 1.66E5 cells/ml in fresh cell culture medium (RPMI 1640 (Gibco #A10491-01), 10% FCS (Gibco #10500), 1× GlutaMax (Gibco #35050-061), 1× Pen/Strep solution (Gibco #15140-122), 100 μg/ml Normocin (InvivoGen #ant-nr), 100 μg/ml Zeocin (InvivoGen #ant-zn), 10 μg/ml Blasticidin S (Life Technologies #A11139-03)). The baculovirus solution was then added 1:200 (have varied according to virus batch) to the cells (measurement of THP1(vir) IC50). […] 30 μL of the cell/virus-mix were added to each well of the compound plate from column 1-23 via MultiDrop Combi dispenser (5000 cells/well). In column 24, 30 μl/5000 cells/well without virus were added as a low control.
The plates were then incubated for 18 h at 37° C. in a humidified incubator.
Following that, 15 μL of QuantiLuc detection reagent (InvivoGen #rep-qlcg5) were added to each well using a MultiDrop Combi. Measurement was done immediately after the addition using an EnVision reader (US-luminescence read-mode).
Data Evaluation and Calculation:
For data evaluation and calculation, the measurement of the low control was set as 0% control and the measurement of the high control was set as 100% control. The IC50 values were calculated using the standard 4 parameter logistic regression formula. Calculation: [y=(a−d)/(1+(x/c)^b)+d], a=low value, d=high value; x=conc M; c=IC50 M; b=slope

The target in experiment [3] is cellular cGAS activity in dsDNA-stimulated human whole blood (Homo sapiens (Human), UniProt Q8N884). Briefly: Human whole blood assay (hWB IC50): IFNα2a production after dsDNA transfection.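 Further: IFNα-2a in plasma measured by MSD electrochemiluminescence immunoassay after 22 h at 37 °C, 8-point dilution series from 10 µM top concentration, DMSO wells as controls.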 It is filed as cell-based.
cellular cGAS activity in dsDNA-stimulated human whole blood, sequence (Q8N884 whole entry): as above
Procedure: 6.3 Method: Human Whole Blood Assay (Human WB IC50) For the detection of cellular cGAS activity human whole blood was stimulated by transfection with double stranded DNA. Pathway activity was monitored by measuring the IFNα2α production.
Compounds were delivered as 10 mM DMSO solution and serially diluted and transferred to the 96-well cell culture plate (Corning #3595), prefilled with 20 μl OptiMEM (Gibco, #11058-021) in each well, using an Echo acoustic dispenser. Typically, 8 concentrations were used with the highest concentration at 10 μM in the final assay volume followed by ˜1:5 dilution steps. DMSO concentration was set to 0.1% in the final assay volume. The 96-well assay plate contained 10 test compounds, and DMSO in control wells.
Collection of human whole blood from 3 or more healthy donors (male or female, no medication for 7 days except contraceptive and thyroxine) as Na-Citrate blood (e.g. 3.8% in Monovettes from Sarstedt) was conducted in parallel. Whole blood was kept at room temperature for a maximum of 3 hours after collection until use in the assay.
160 μl of the whole blood samples was transferred to each well of the 96-well assay plates filled with compound/OptiMEM. All assay plates were prepared as duplicates with blood from different donors. Blood plates were kept at room temperature for 60 minutes and continuous shaking with 450 rpm, covered with the lid, but not sealed.
20 μl OptiMEM and 9.6:1 Fugene was added to all low control wells.
After covering assay plates with area seals and the lid, blood plates were kept at room temperature for 30 minutes and continuous shaking with 450 rpm, followed by an overnight incubation of 22 h at 37° C. in the incubator, without shaking.
For the detection of IFNα-2a in human plasma, the biotinylated capture antibody (Antibody set IFNA2, Meso Scale Diagnostics #B21VH-3, including coating and capture antibody) was diluted 1:17.5 in Diluent 100 (Meso Scale Diagnostics #R50AA-4), according to the manufacturer's directions. U-Plex MSD GOLD 96-well Small Spot Strepavidin SECTOR Plates (Meso Scale Diagnostics #L45SA-5) were coated with 25 μl diluted capture antibody. Coated plates were incubated for 60 min at room temperature under continuous shaking at 700 rpm. MSD IFNα-2a plates were washed three times with 150 μl wash buffer (1×HBSS, 0.05% Tween).
After blocking the plates with 100 μl block solution/well (1×HBSS with 0.2% Tween, 2% BSA) for 60 min at room temperature and continuous shaking at 700 rpm, plates were emptied as dry as possible by dumping just before continuing with the human plasma.
Whole Blood assay plates were centrifuged at 1600 rpm for 10 minutes. 25 μl of supernatant was transferred with a pipetting robot from each whole blood plate to the corresponding IFNα-2a plate.
Plates were sealed with microplate seals and kept at room temperature again under continuous shaking at 700 rpm for two hours.
Next MSD IFNα-2a plates were washed three times with 150 μl wash buffer (1×HBSS, 0.05% Tween), before adding 25 μl MSD SULFO-TAG IFNα-2a Antibody solution (1:100 diluted in Diluent 3 (Meso Scale Diagnostics #R50AP-2) to each well of the plates.
Afterwards plates were sealed with microplate seals and kept at room temperature again under continuous shaking at 700 rpm for two hours. Finally, MSD IFNα-2a plates were washed three times with 150 μl wash buffer (1×HBSS, 0.05% Tween). 150 μl 2× Read buffer was added to each well and plates were immediately measured with the MSD Sector S600 Reader using the vendor barcode.
For data evaluation and calculation,% control calculation of each well was based on the mean of high (DNA stimulated control) and mean of low (unstimulated control) controls by using the following formula:
The IC50-values were calculated using the standard 4 parameter logistic regression formula.
Setting [4] is: Table 1, virus-stimulated THP1 cells, read-out: THP(vir) IC50.
Where [5] appears, read: Table 1, cGAMP-stimulated THP1 cells, read-out: THP(cGAMP) IC50.
[6] abbreviates: Table 1, dsDNA-stimulated human whole blood.

Like-named read-outs stand apart in the source and are kept apart here. Where only a bound is given, the exact number is not on record here.

Human cGAS enzyme, sequence (Q8N884 whole entry): as above

As usually defined, the IC50 is the midpoint of a concentration-inhibition curve. `COc1cc(-c2cnc3c(c2)[C@@]2(F)CCN(C[C@@H]2C)C(=O)CCCOCCc2nc(c4oc5ccccc5c4n2)N2C[C@H](C[C@H]2C(=O)O)O3)c(F)cn1` [Example 20.03]: the IC50 against Human cGAS enzyme (Table 1) worked out at 18 nM; in experiment [1] (setting [4]) it was 18 nM; in experiment [2] (setting [5]), 5900 nM; in experiment [3] (setting [6]) it was 38 nM. In addition, the “Ratio THP(cGAMP) IC50/ THP(vir) IC50” value in experiment [2] (Table 1) stood at 321.
For the molecule `C[C@H]1CN2CC[C@]1(F)c1cc(Cl)cnc1O[C@H]1C[C@@H](C(=O)O)N(C1)c1nc(nc3c1oc1ccccc13)C(F)(F)CCCCC(F)(F)C2=O` [Example 06, (1R,9S,11S,34S)-4-chloro-1,25,25,30,30-pentafluoro-34-methyl-31-oxo-8,15-dioxa-6,12,23,32,37-pentaazaheptacyclo[30.2.2.1^9,12.1^13,24.0^2,7.0^14,22.0^16,21]-octatriaconta-2,4,6,13(37),14(22),16(21),17,19,23-nonaene-11-carboxylic acid], the IC50 at Human cGAS enzyme (Table 1) is 18 nM; in experiment [1] (setting [4]), 150 nM; in experiment [2] (setting [5]) it was more than 10000 nM; in experiment [3] (setting [6]) it was 222 nM. Also, the “Ratio THP(cGAMP) IC50/ THP(vir) IC50” value in experiment [2] (Table 1) was 65.
The matching figures for `C[C@H]1CN2CC[C@]1(F)c1cc(Br)cnc1O[C@H]1C[C@@H](C(=O)O)N(C1)c1nc(nc3c1oc1ccccc13)CCOCCCC2=O` [Example 17]: 13 nM, 140 nM, 5600 nM, 96 nM and 40.
The matching figures for `C[C@H]1CN2CC[C@]1(F)c1cc(Cl)cnc1O[C@H]1C[C@@H](C(=O)O)N(C1)c1nc(nc3c1oc1ccccc13)CCCCCC2=O` [Example 36]: 7 nM, 130 nM, more than 10000 nM, 79 nM and 80.
For `COc1ncccc1-c1cnc2c(c1)[C@@]1(F)CCN(C[C@@H]1C)C(=O)CCCOCCc1nc(c3oc4ccccc4c3n1)N1C[C@H](C[C@H]1C(=O)O)O2` [Example 20.01, (1R,9S,11S,34S)-1-fluoro-4-(2-methoxypyridin-3-yl)-34-methyl-31-oxo-8,15,27-trioxa-6,12,23,32,37-pentaazaheptacyclo[30.2.2.1^9,12.1^13,24.0^2,7.0^14,22.0^16,21]octatriaconta-2,4,6,13(37),14(22),16(21),17,19,23-nonaene-11-carboxylic acid] the same measures were 18 nM, 19 nM, 8100 nM, 45 nM and 419.
For `C[C@H]1CN2CC[C@]1(F)c1cc(Cl)cnc1O[C@H]1C[C@@H](C(=O)O)N(C1)c1nc(nc3c1oc1ccccc13)C(F)(F)OCCCCC2=O` [Example 15, (1R,9S,11S,34S)-4-chloro-1,25,25-trifluoro-34-methyl-31-oxo-8,15,26-trioxa-6,12,23,32,37-pentaazaheptacyclo[30.2.2.1^9,12.1^13,24.0^2,7.0^14,22.0^16,21]octatriaconta-2(7),3,5,13(37),14(22),16(21),17,19,23-nonaene-11-carboxylic acid], the IC50 stood at 11 nM against Human cGAS enzyme (Table 1), 70 nM in experiment [1] (setting [4]), 8200 nM in experiment [2] (setting [5]) and 47 nM in experiment [3] (setting [6]). For the same molecule, in experiment [2] (Table 1), the “Ratio THP(cGAMP) IC50/ THP(vir) IC50” value amounted to 117.
The matching figures for `C[C@H]1CN2CC[C@]1(F)c1cc(Cl)cnc1O[C@H]1C[C@@H](C(=O)O)N(C1)c1nc(nc3c1oc1cc(F)ccc13)CCCCOCC2=O` [Example 30]: 7 nM, 70 nM, 4700 nM, 22 nM and 67.
The matching figures for `C[C@H]1CN2CC[C@]1(F)c1cc(Cl)cnc1O[C@H]1C[C@@H](C(=O)O)N(C1)c1nc(nc3c1oc1ccccc13)CCCCOCC2=O` [Example 27]: 5 nM, 83 nM, 1700 nM, 33 nM and 20.
For `C[C@H]1CN2CC[C@]1(F)c1cc(Cl)cnc1O[C@H]1C[C@@H](C(=O)O)N(C1)c1nc(nc3c1oc1ccccc13)COCCCOC2=O` [Example 13, (1R,9S,11S,34S)-4-chloro-1-fluoro-34-methyl-31-oxo-8,15,26,30-tetraoxa-6,12,23,32,37-pentaaabestacyclo[30.2.2.1^9,12.1^13,24.0^14,22.0^16,21]octatriaconta-2(7),3,5,13(37),14(22),16(21),17,19,23-nonaene-11-carboxylic acid] the same measures were 22 nM, 42 nM, 16000 nM, 149 nM and 256.
As for `C[C@@H]1COCCCc2nc(c3oc4ccccc4c3n2)N2C[C@H](C[C@H]2C(=O)O)Oc2ncc(Br)cc2[C@@]2(F)CCN(C[C@@H]2C)C1=O` [Example 26], the IC50 came to 18 nM at Human cGAS enzyme (Table 1), 46 nM in experiment [1] (setting [4]), 3200 nM in experiment [2] (setting [5]) and 276 nM in experiment [3] (setting [6]). Moreover, the “Ratio THP(cGAMP) IC50/ THP(vir) IC50” value in experiment [2] (Table 1) was determined as 70.
The matching figures for `C[C@H]1CN2CC[C@]1(F)c1cc(Cl)cnc1O[C@H]1C[C@@H](C(=O)O)N(C1)c1nc(nc3c1oc1ccccc13)CCCCCOC2=O` [Example 22, (1R,9S,11S,34S)-4-chloro-1-fluoro-34-methyl-31-oxo-8,15,30-trioxa-6,12,23,32,37-pentaaabestacyclo[30.2.2.1^9,12.1^13,24.0^2,7.0^14,22.0^16,21]octatriaconta-2,4,6,13(37),14(22),16(21),17,19,23-nonaene-11-carboxylic acid]: 45 nM, 490 nM, more than 10000 nM, 1560 nM and 20.
The matching figures for `C[C@H]1CN2CC[C@]1(F)c1cc(Cl)cnc1O[C@H]1C[C@@H](C(=O)O)N(C1)c1nc(nc3c1oc1ccccc13)COC(=O)CCC2=O` [Example 11, (1R,9S,11S,33S)-4-Chloro-1-fluoro-33-methyl-27,30-dioxo-8,15,26-trioxa-6,12,23,31,36-pentaazaheptacyclo[29.2.2.1^9,12.1^13,24.0^2,7.0^14,22.0^16,21]heptatriaconta-2,4,6,13(36),14(22),16(21),17,19,23-nonaene-11-carboxylic acid]: 2.8 nM, 11 nM, more than 10000 nM, 9 nM and 902.
For `C[C@H]1CN2CC[C@]1(F)c1cc(Cl)cnc1O[C@H]1C[C@@H](C(=O)O)N(C1)c1nc(nc3c1oc1ccccc13)CCOCCC2=O` [Example 38, (1R,9S,11S,33S)-4-chloro-1-fluoro-33-methyl-30-oxo-8,15,27-trioxa-6,12,23,31,36-pentaaza-heptacyclo[29.2.2.1^9,12.1^13,24.0^2,7.0^14,22.0^16,21]heptatriaconta-2,4,6,13(36),14(22),16(21),17,19,23-nonaene-11-carboxylic acid] the same measures were 3 nM, 3 nM, more than 10000 nM, 8 nM and 2964.
For `Cc1nc(N2C[C@@H](CC(=O)Nc3ccncc3)C[C@H]2C(=O)O)c2oc3ccccc3c2n1` [Example 28], the IC50 against Human cGAS enzyme (Table 2, compounds from WO 2020/142729 re-tested in the applicant's assay) is 630 nM; in experiment [1] (Table 2, compounds from WO 2020/142729, read-out: THP1(vir) IC50), more than 32000 nM; in experiment [2] (Table 2, compounds from WO 2020/142729, read-out: THP1(cGAMP) IC50), more than 17000 nM; in experiment [3] (Table 2, compounds from WO 2020/142729), more than 9990 nM.

The record behind these values is US20240189315A1, “Cyclic Pyridine Derivatives as cGAS Inhibitors” (Boehringer Ingelheim International GmbH, priority 2022, published 2024).
